The text below walks through data of BindingDB's records for PubMed 38266553 (China Pharmaceutical University).

The target of assay [1] is Prostaglandin G/H synthase 2 (Homo sapiens) (UniProt P35354). In words: Inhibition of COX-2 (unknown origin) using arachidonic acid as substrate preincubated for 10 mins followed by substrate addition and measured after 5 mins by fluorescence based analysis.
The target of assay [2] is Prostaglandin G/H synthase 1 (Homo sapiens) (UniProt P23219). In words: Inhibition of COX-1 (unknown origin) using arachidonic acid as substrate preincubated for 10 mins followed by substrate addition and measured after 5 mins by fluorescence based analysis.

The structures appear in SMILES notation.

Prostaglandin G/H synthase 2 (Homo sapiens), sequence (P35354 whole entry, looked up): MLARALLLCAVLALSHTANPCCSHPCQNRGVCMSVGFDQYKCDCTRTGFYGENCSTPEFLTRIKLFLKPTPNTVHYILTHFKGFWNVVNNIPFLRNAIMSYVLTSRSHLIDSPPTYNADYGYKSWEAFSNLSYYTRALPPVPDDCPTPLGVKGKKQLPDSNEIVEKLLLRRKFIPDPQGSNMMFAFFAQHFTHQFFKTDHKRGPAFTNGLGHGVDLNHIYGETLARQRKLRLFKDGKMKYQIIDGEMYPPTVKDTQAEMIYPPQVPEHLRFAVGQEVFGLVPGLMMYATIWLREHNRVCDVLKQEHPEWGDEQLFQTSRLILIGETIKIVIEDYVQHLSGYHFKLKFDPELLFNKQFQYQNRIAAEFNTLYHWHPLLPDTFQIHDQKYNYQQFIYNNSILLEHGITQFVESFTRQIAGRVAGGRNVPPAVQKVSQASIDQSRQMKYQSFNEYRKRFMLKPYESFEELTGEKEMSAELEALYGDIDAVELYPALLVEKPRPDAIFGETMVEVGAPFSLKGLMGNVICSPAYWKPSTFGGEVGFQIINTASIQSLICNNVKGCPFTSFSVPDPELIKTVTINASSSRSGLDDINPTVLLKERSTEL

As to `Cc1[nH]n(-c2ccccc2)c(=O)c1Cc1ccc(C(=O)NO)cc1`, the IC50 in assay [1] stood at 75 nM; in assay [2] it was 5730 nM.

In the case of `CCc1nn(-c2ccccc2)c(O)c1Cc1ccc(C(=O)NO)cc1`, the IC50 in assay [1] was determined as 134 nM; in assay [2], 321 nM.

For `CC(C)(C)c1nn(-c2ccccc2)c(O)c1Cc1ccc(C(=O)NO)cc1`, the IC50 came to 144 nM in assay [1] and 1290 nM in assay [2].

As for `Cc1nn(-c2cccc(Cl)c2)c(O)c1Cc1ccc(C(=O)NO)cc1`, the IC50 stood at 58 nM in assay [1] and 1360 nM in assay [2].
